Experimental data reported in the supplement of paper PMC10307832.

Legend:
Assay in all cases: relative viability (nuclei count vs DMSO), 5 days (fraction); higher = more cells survive
[1] = system: NCI-H2023
How it was run: (§1)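 Relative viability was taken as the ratio of nuclei in treated wells to nuclei in vehicle wells. Lung cancer cell lines in 1536-well plates received compounds by pin tool one day after seeding, either one drug alone or a fixed anchor-drug dose plus five library-drug doses (not always all listed) in √10 steps. Nuclei were counted on 4× images after 5 days of treatment, and values are medians of duplicate plates.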

[2] = system: NCI-H2085
How it was run: as §1

[3] = system: NCI-H2126
How it was run: as §1

[4] = system: NCI-H2347
How it was run: as §1

[5] = system: NCI-H322M
How it was run: as §1

[6] = system: NCI-H647
How it was run: as §1

[7] = system: NCI-H661
How it was run: as §1

[8] = system: NCI-H727
How it was run: as §1

[9] = system: PC-14
How it was run: as §1

[10] = system: SK-LU-1
How it was run: as §1

[11] = system: SW 1573
How it was run: as §1

O=c1cc(N2CCOCC2)oc2c(-c3cccc4c3sc3ccccc34)cccc12 + O=C(c1cc(Cc2n[nH]c(=O)c3ccccc23)ccc1F)N1CCN(C(=O)C2CC2)CC1 [Olaparib] (partner 8 µM)
relative viability ([1]; first compound 0.1 µM): 0.491 | relative viability ([1]; first compound 0.3162 µM): 0.513 | relative viability ([1]; first compound 1 µM): 0.468 | relative viability ([2]; first compound 0.01 µM): 0.806 | relative viability ([2]; first compound 0.03162 µM): 0.813 | relative viability ([2]; first compound 0.1 µM): 0.775 | relative viability ([2]; first compound 0.3162 µM): 0.767 | relative viability ([2]; first compound 1 µM): 0.767 | relative viability ([3]; first compound 0.01 µM): 0.887 | relative viability ([3]; first compound 0.03162 µM): 0.91 | relative viability ([3]; first compound 0.1 µM): 0.938 | relative viability ([3]; first compound 0.3162 µM): 0.899 | relative viability ([3]; first compound 1 µM): 0.918 | relative viability ([4]; first compound 0.01 µM): 0.597 | relative viability ([4]; first compound 0.03162 µM): 0.541 | relative viability ([4]; first compound 0.1 µM): 0.553 | relative viability ([4]; first compound 0.3162 µM): 0.621 | relative viability ([4]; first compound 1 µM): 0.551 | relative viability ([5]; first compound 0.01 µM): 0.688 | relative viability ([5]; first compound 0.03162 µM): 0.827 | relative viability ([5]; first compound 0.3162 µM): 0.73 | relative viability ([5]; first compound 1 µM): 0.725 | relative viability ([6]; first compound 0.01 µM): 0.538 | relative viability ([6]; first compound 0.03162 µM): 0.682 | relative viability ([6]; first compound 0.1 µM): 0.524 | relative viability ([6]; first compound 0.3162 µM): 0.655 | relative viability ([6]; first compound 1 µM): 0.592 | relative viability ([7]; first compound 0.01 µM): 0.744 | relative viability ([7]; first compound 0.03162 µM): 0.725 | relative viability ([7]; first compound 0.1 µM): 0.709 | relative viability ([7]; first compound 0.3162 µM): 0.732 | relative viability ([7]; first compound 1 µM): 0.721 | relative viability ([8]; first compound 0.01 µM): 0.692 | relative viability ([8]; first compound 0.03162 µM): 0.618 | relative viability ([8]; first compound 0.1 µM): 0.679 | relative viability ([8]; first compound 0.3162 µM): 0.711 | relative viability ([8]; first compound 1 µM): 0.684 | relative viability ([9]; first compound 0.01 µM): 0.285 | relative viability ([9]; first compound 0.03162 µM): 0.21 | relative viability ([9]; first compound 0.1 µM): 0.325 | relative viability ([9]; first compound 0.3162 µM): 0.282 | relative viability ([9]; first compound 1 µM): 0.269 | relative viability ([10]; first compound 0.01 µM): 0.434 | relative viability ([10]; first compound 0.03162 µM): 0.447 | relative viability ([10]; first compound 0.1 µM): 0.387 | relative viability ([10]; first compound 0.3162 µM): 0.52 | relative viability ([10]; first compound 1 µM): 0.51 | relative viability ([11]; first compound 0.01 µM): 0.491 | relative viability ([11]; first compound 0.03162 µM): 0.446 | relative viability ([11]; first compound 0.1 µM): 0.447 | relative viability ([11]; first compound 0.3162 µM): 0.441 | relative viability ([11]; first compound 1 µM): 0.466
